This is an account of results in ChEMBL document CHEMBL1135075, “Synthesis and biological evaluation of imidazol-2-one and 2-cyanoiminoimidazole derivatives: novel series of PDE4 inhibitors” (Bioorg Med Chem Lett, 2002).

In assay [1] the test system is Rattus norvegicus. Description: Tested in vivo for lowest active dose that induced inhibitory effect on gastric emptying in rats. The class given is functional, Stomach.
Assay [2] deals with 3',5'-cyclic-AMP phosphodiesterase 4B (Homo sapiens, UniProt Q07343). Put plainly: Inhibitory activity against recombinant phosphodiesterase 4B (PDE4B) of human mononuclear lymphocytes.
Chain of 3',5'-cyclic-AMP phosphodiesterase 4B (Q07343 whole entry): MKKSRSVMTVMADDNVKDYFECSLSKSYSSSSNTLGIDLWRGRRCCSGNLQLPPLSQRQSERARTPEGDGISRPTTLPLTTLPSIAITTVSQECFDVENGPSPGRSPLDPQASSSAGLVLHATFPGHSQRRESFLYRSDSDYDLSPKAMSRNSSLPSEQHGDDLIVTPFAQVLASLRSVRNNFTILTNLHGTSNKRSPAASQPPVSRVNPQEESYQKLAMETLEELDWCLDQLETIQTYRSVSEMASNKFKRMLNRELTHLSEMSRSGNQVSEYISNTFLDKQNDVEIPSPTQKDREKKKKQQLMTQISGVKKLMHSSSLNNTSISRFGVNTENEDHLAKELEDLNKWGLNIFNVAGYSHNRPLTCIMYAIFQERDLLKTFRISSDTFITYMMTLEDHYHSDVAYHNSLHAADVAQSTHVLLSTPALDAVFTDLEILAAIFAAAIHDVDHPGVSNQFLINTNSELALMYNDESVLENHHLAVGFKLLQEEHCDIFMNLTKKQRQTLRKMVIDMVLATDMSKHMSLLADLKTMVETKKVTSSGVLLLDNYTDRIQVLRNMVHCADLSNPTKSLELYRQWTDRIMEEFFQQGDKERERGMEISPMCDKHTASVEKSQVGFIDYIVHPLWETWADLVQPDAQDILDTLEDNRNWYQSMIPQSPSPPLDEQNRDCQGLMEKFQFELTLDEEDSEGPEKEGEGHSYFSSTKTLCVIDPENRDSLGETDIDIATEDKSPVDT
Assay [3] relates to Mus musculus. Description: Evaluated for antiinflammatory activity in the TPA induced ear inflammation model at a dose 1 mg/kg (25 ug). The class given is functional.
Assay [4] concerns Mus musculus. Description: Evaluated for antiinflammatory activity in the TPA induced ear inflammation model at a dose 2 mg/kg (50 ug). The class given is functional.
Assay [5] concerns the target Phosphodiesterase 4 (Rattus norvegicus, UniProt P14270+P14646+P14644+P54748). Put plainly: Displacement of [3H]rolipram from rat forebrain membrane. In kind it is tissue-based, Brain. (In general: In a radioligand displacement assay an active substance lowers the binding of a labelled ligand.)

The compound `COc1ccc(C(C)(C)Cn2ccnc2O)cc1OC1CCCC1` showed an LAD in assay [1] of 0.63 mg/kg. Also, in assay [2], the IC50 was found to be 367 nM.
Consider `CC(Cn1ccnc1O)c1ccc(OC(F)F)c(OC2CCCC2)c1` (centres undefined), for which, in assay [1], the LAD worked out at 0.02 mg/kg. In addition, the IC50 in assay [2] is below 10 nM.
In assay [3], `COc1ccc(C2(Cn3ccnc3O)CC2)cc1OC1CCCC1` had an inhibition in vivo at 1 mg/kg of 18%. For the same compound, the inhibition in vivo at 2 mg/kg in assay [4] stood at 66%. In addition, in assay [1], the LAD stood at 0.63 mg/kg. Further, the IC50 in assay [2] came to 341 nM.
With `COc1ccc(C(C)Cn2ccnc2O)cc1OC1CCCC1` (centres undefined), the LAD in assay [1] stood at 0.01 mg/kg. Also, the IC50 in assay [2] worked out at 24.1 nM.
The matching figures for `COc1ccc(C(C)Cn2ccnc2NC#N)cc1OCCC1Cc2ccccc2C1` (centres undefined): above 1.25 mg/kg and 67.6 nM.
As for `COc1ccc(C(C)Cn2ccnc2NC#N)cc1OC1CCCC1` (centres undefined), in assay [3], the inhibition in vivo at 1 mg/kg was 50%. For the same compound, the inhibition in vivo at 2 mg/kg in assay [4] came to 84%. The LAD in assay [1] came to 1.25 mg/kg.
The matching figures for `CC(Cn1ccnc1NC#N)c1ccc(OC(F)F)c(OCC2CC2)c1` (centres undefined): 22%, 52% and 0.08 mg/kg.
In assay [1], `CC(Cn1ccnc1O)c1ccc(OC(F)(F)F)c(OC2CCCC2)c1` (centres undefined) came in with an LAD of 1.25 mg/kg. Moreover, the half-maximal inhibitory concentration (IC50) in assay [2] is above 1000 nM.
The compound `COc1ccc(C(C)Cn2ccnc2NC#N)cc1OC1CCOC1` (centres undefined) yielded an inhibition in vivo at 1 mg/kg in assay [3] of 38%. Moreover, in assay [4], the inhibition in vivo at 2 mg/kg is 71%. In assay [1], the LAD is above 1.25 mg/kg.
For the compound `COc1ccc(C(F)Cn2ccnc2O)cc1OC1Cc2ccccc2C1` (centres undefined), the LAD in assay [1] was determined as 0.08 mg/kg. Further, in assay [2], the IC50 was 24.3 nM.
The compound `COc1ccc(C(C)Cn2ccnc2O)cc1OC1CCOC1` (centres undefined) returned an LAD in assay [1] of 0.02 mg/kg.
Take `CC(Cn1ccnc1NC#N)c1ccc(OC(F)F)c(OCCCCCc2ccccc2)c1` (centres undefined): in assay [3], the inhibition in vivo at 1 mg/kg was 41%. Testing at 2 mg/kg in assay [4] gave an inhibition in vivo of 69%. Moreover, in assay [1], the LAD was above 1.25 mg/kg. Also, the IC50 in assay [2] amounted to 28.4 nM.
Take `COc1ccc(C(C)Cn2ccnc2NC#N)cc1OCCCCCc1ccccc1` (centres undefined): the inhibition in vivo at 1 mg/kg in assay [3] was found to be 36%. The compound further displayed an inhibition in vivo at 2 mg/kg in assay [4] of 77%. This compound returned an LAD in assay [1] above 1.25 mg/kg.
In the case of `COc1ccc([C@H](C)Cn2ccnc2NC#N)cc1OC1Cc2ccccc2C1`, the inhibition in vivo at 1 mg/kg in assay [3] came out at 54%. This compound also displayed a Ki in assay [5] of 220 nM. This compound also had an LAD in assay [1] above 5 mg/kg.
For `COc1ccc([C@@H](C)Cn2cc[nH]/c2=N\C#N)cc1OC1Cc2ccccc2C1` the same measures were 56%, 63 nM and 2.5 mg/kg.
Compound `COc1ccc(C(O)Cn2ccnc2O)cc1OC1Cc2ccccc2C1` (centres undefined) showed an LAD in assay [1] of 0.31 mg/kg. In addition, the half-maximal inhibitory concentration (IC50) in assay [2] was determined as 399 nM.
On to `COc1ccc(C(C)C(C)n2ccnc2O)cc1OC1CCCC1` (centres undefined), for which the IC50 in assay [2] was 277 nM.
`COc1ccc(CCn2ccnc2O)cc1OC1CCCC1` displayed an inhibition in vivo at 1 mg/kg in assay [3] of 32%. For the same compound, the inhibition in vivo at 2 mg/kg in assay [4] stood at 81%. The LAD in assay [1] is 0.08 mg/kg. Further, the IC50 in assay [2] was 110 nM.
In the case of `COc1ccc(C(C)Cn2ccnc2NC#N)cc1OC1Cc2ccccc2C1` (centres undefined), at 1 mg/kg the inhibition in vivo in assay [3] was 51%. In assay [4], this compound came in with an inhibition in vivo at 2 mg/kg of 82%. In addition, the Ki in assay [5] is 180 nM. Besides, in assay [1], the LAD turned out to be 2.5 mg/kg.
The compound `COc1ccc(C(C)Cn2ccnc2NC#N)cc1OCC1CC1` (centres undefined) showed an inhibition in vivo at 1 mg/kg in assay [3] of 38%. This compound also registered an inhibition in vivo at 2 mg/kg in assay [4] of 78%. The same compound came in with an LAD in assay [1] of 1.25 mg/kg.
In turn, `COc1ccc(C(C)Cn2ccnc2O)cc1OC1CC2CCC1C2` (centres undefined) displayed an inhibition in vivo at 1 mg/kg in assay [3] of 34%. Moreover, in assay [4], at 2 mg/kg the inhibition in vivo was 90%. Further, the LAD in assay [1] stood at 0.01 mg/kg. In addition, the IC50 in assay [2] is 21 nM.
As for `COc1ccc(C(C)(F)Cn2ccnc2O)cc1OC1CCOC1` (centres undefined), in assay [1], the LAD came out at 0.31 mg/kg. For the same compound, in assay [2], the IC50 was found to be 327 nM.
Turning to `COc1ccc(C(C)(O)Cn2ccnc2O)cc1OC1CCOC1` (centres undefined), in assay [1], the LAD amounted to 0.31 mg/kg. In assay [2], the IC50 is above 1000 nM.
For `Oc1nccn1CC1(c2ccc(OC(F)F)c(OC3CCCC3)c2)CC1`, in assay [1], the LAD worked out at 0.08 mg/kg. In addition, the half-maximal inhibitory concentration (IC50) in assay [2] was found to be 39.2 nM.
Take `COc1ccc(C(=O)Cn2ccnc2O)cc1OC1CCCC1`: the LAD in assay [1] was determined as 1.25 mg/kg. In assay [2], the IC50 came to 486 nM.
`COc1ccc(C(=O)Nc2c(Cl)cncc2Cl)cc1OC1CCCC1` gave an inhibition in vivo at 1 mg/kg in assay [3] of 43%. This compound registered an inhibition in vivo at 2 mg/kg in assay [4] of 69%. This compound also displayed an LAD in assay [1] of 0.5 mg/kg.
In assay [3], `COc1ccc(C(C)Cn2ccnc2O)cc1OCC1CC1` (centres undefined) had an inhibition in vivo at 1 mg/kg of 56%. In assay [4], this compound registered an inhibition in vivo at 2 mg/kg of 74%. In assay [5], this compound came in with a Ki of 3.5 nM. The compound further registered an LAD in assay [1] of 0.01 mg/kg. Also, the IC50 in assay [2] is 85.8 nM.
`COc1ccc([C@]2(C#N)CC[C@@H](C(=O)O)CC2)cc1OC1CCCC1` [CILOMILAST] came in with an inhibition in vivo at 1 mg/kg in assay [3] of 69%. The compound also registered an inhibition in vivo at 2 mg/kg in assay [4] of 88%. Besides, the LAD in assay [1] was 5 mg/kg.
The matching figures for `COc1ccc(C2CNC(=O)C2)cc1OC1CCCC1` (centres undefined) [ROLIPRAM]: 6%, 43% and 0.04 mg/kg.

The IC50 is the point on the concentration scale where inhibition reaches its midpoint. Usually inhibition in vivo stands for the drop in the measured response relative to a control, in per cent. Higher therefore signals a strong effect. Broadly, the Ki is the equilibrium dissociation constant of an inhibitor or competing ligand from its target. A high value points to weaker binding.
